Values joined by “and” are separate entries in the source; they are usually repeats but may differ in a detail not shown here. Equal entries are not always repeated. Inconclusive results and toxic doses are left out. Cut-off read from the data, not from the text of the source: active = T/C of 150% or more; inactive = T/C below 125%.
System: L1210 leukemia ip in BDF1 mice, survival T/C
Test: NCI In Vivo Anticancer Drug Screen. Data for tumor model L1210 Leukemia (intraperitoneal) in B6D2F1 (BDF1) mice
Conditions: endpoint: mean survival time, higher = longer survival
Summary of the method: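 Ratio derived from survival: compound-dosed mice over vehicle-dosed mice, all bearing a transplantable tumor.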

[1] = dose: 100.0 mg/kg/injection, schedule: Q01DX001 (ip), vehicle: other
[2] = dose: 200.0 mg/kg/injection, schedule: Q01DX001 (ip), vehicle: other
[3] = dose: 400.0 mg/kg/injection, schedule: Q01DX001 (ip), vehicle: other
[4] = dose: 100.0 mg/kg/injection, schedule: Q01DX009 (ip), vehicle: saline with Tween-80
[5] = dose: 200.0 mg/kg/injection, schedule: Q01DX009 (ip), vehicle: saline with Tween-80
[6] = dose: 400.0 mg/kg/injection, schedule: Q01DX009 (ip), vehicle: saline with Tween-80
[7] = dose: 100.0 mg/kg/injection, schedule: Q01DX001 (ip), vehicle: Klucel (hydroxypropylcellulose) (HPC)
[8] = dose: 200.0 mg/kg/injection, schedule: Q01DX001 (ip), vehicle: Klucel (hydroxypropylcellulose) (HPC)
[9] = dose: 400.0 mg/kg/injection, schedule: Q01DX001 (ip), vehicle: Klucel (hydroxypropylcellulose) (HPC)
[10] = dose: 12.5 mg/kg/injection, schedule: Q01DX009 (ip), vehicle: saline with Tween-80
[11] = dose: 25.0 mg/kg/injection, schedule: Q01DX009 (ip), vehicle: saline with Tween-80
[12] = dose: 50.0 mg/kg/injection, schedule: Q01DX009 (ip), vehicle: saline with Tween-80
[13] = dose: 50.0 mg/kg/injection, schedule: Q04DX003 (ip), vehicle: saline
[14] = dose: 100.0 mg/kg/injection, schedule: Q01DX001 (ip), vehicle: saline
[15] = dose: 100.0 mg/kg/injection, schedule: Q04DX003 (ip), vehicle: saline
[16] = dose: 200.0 mg/kg/injection, schedule: Q01DX001 (ip), vehicle: saline
[17] = dose: 200.0 mg/kg/injection, schedule: Q04DX003 (ip), vehicle: saline
[18] = dose: 100.0 mg/kg/injection, schedule: Q01DX009 (ip), vehicle: saline
[19] = dose: 100.0 mg/kg/injection, schedule: Q01DX009 (ip), vehicle: Klucel (hydroxypropylcellulose) (HPC)
[20] = dose: 200.0 mg/kg/injection, schedule: Q01DX009 (ip), vehicle: Klucel (hydroxypropylcellulose) (HPC)
[21] = dose: 100.0 mg/kg/injection, schedule: Q01DX001 (ip), vehicle: acetone
[22] = dose: 200.0 mg/kg/injection, schedule: Q01DX001 (ip), vehicle: acetone

Measured: T/C

O=C(Cl)CNS(=O)(=O)c1ccccc1
inactive: [1] 106 % of control | [2] 108 % of control | [3] 111 % of control

CC(=O)Nc1ccc(Br)c(NC(C)=O)n1
inactive: [4] 109 % of control | [5] 101 % of control | [6] 112 % of control

CCOC(=O)C(=CNc1ccc(Cl)cc1Cl)C(=O)OCC
inactive: [1] 93 % of control | [2] 101 % of control | [3] 101 % of control

CC(C)(C)c1cc(/C=C/C(=O)O)cc(C(C)(C)C)c1O
inactive: [7] 107 % of control | [8] 96 % of control | [9] 90 % of control

Cn1c2ccccc2c2cc[n+]3c(c21)CCCC3
inactive: dose: 5.0 mg/kg/injection, schedule: Q01DX001 (ip), vehicle: saline 108 % of control | dose: 10.0 mg/kg/injection, schedule: Q01DX001 (ip), vehicle: saline 108 % of control | dose: 20.0 mg/kg/injection, schedule: Q01DX001 (ip), vehicle: saline 115 % of control | dose: 40.0 mg/kg/injection, schedule: Q01DX001 (ip), vehicle: saline 115 % of control

COCCOCCOCCOCCOCCOC
inactive: [10] 104 % of control | [11] 94 % of control | [12] 105 % of control

CN(N)C(=S)c1ccc(Cl)cc1
inactive: [13] 102 % of control | [14] 95 % of control | [15] 100 % of control | [16] 93 % of control | [17] 96 % of control

NC(CSSCC(NC(=O)C(F)(F)F)C(=O)O)C(=O)O (stereo not given)
inactive: dose: 50.0 mg/kg/injection, schedule: Q01DX001 (ip), vehicle: saline 96 % of control | [14] 98 % of control | [16] 93 % of control

COc1cc2c(cc1O)CN(CCC(C)=O)CC2O (stereo not given)
inactive: dose: 25.0 mg/kg/injection, schedule: Q01DX009 (ip), vehicle: saline 101 % of control | dose: 50.0 mg/kg/injection, schedule: Q01DX009 (ip), vehicle: saline 93 % of control | [18] 86 % of control

Cc1c[n+]2ccc3ccccc3c2c2ccccc12
inactive: dose: 1.0 mg/kg/injection, schedule: Q01DX015 (ip), vehicle: carboxymethylcellulose (CMC) 100 % of control | dose: 1.25 mg/kg/injection, schedule: Q01DX009 (ip), vehicle: saline 94 % of control | dose: 2.0 mg/kg/injection, schedule: Q01DX015 (ip), vehicle: carboxymethylcellulose (CMC) 105 % of control | dose: 2.5 mg/kg/injection, schedule: Q01DX009 (ip), vehicle: saline 95 % of control | dose: 2.5 mg/kg/injection, schedule: Q04DX003 (ip), vehicle: acetone 103 % of control | dose: 4.0 mg/kg/injection, schedule: Q01DX015 (ip), vehicle: carboxymethylcellulose (CMC) 117 % of control | dose: 5.0 mg/kg/injection, schedule: Q01DX001 (ip), vehicle: acetone 106 % of control | dose: 5.0 mg/kg/injection, schedule: Q01DX009 (ip), vehicle: saline 113 % of control | dose: 5.0 mg/kg/injection, schedule: Q04DX003 (ip), vehicle: acetone 101 % of control | dose: 7.0 mg/kg/injection, schedule: Q01DX009 (ip), vehicle: saline 113 % of control | dose: 8.0 mg/kg/injection, schedule: Q01DX015 (ip), vehicle: carboxymethylcellulose (CMC) 112 % of control | dose: 10.0 mg/kg/injection, schedule: Q01DX001 (ip), vehicle: acetone 117 % of control

CN=C(N)c1ccc(N=C(N)c2ccc(Cl)c(C(N)=Nc3ccc(C(N)=NC)cc3)c2)cc1
inactive: dose: 10.0 mg/kg/injection, schedule: Q01DX Z (ip), vehicle: water 96 % of control | dose: 20.0 mg/kg/injection, schedule: Q01DX Z (ip), vehicle: water 113 % of control

CC(=O)OC1CCC2(C)C3CCC4(C)C(O)CCC4C3CC(O)C2(O)C1 (stereo not given)
inactive: [4] 110 % of control | [5] 97 % of control | [6] 94 % of control

C=CC[N+](CCO)(CCO)CCCCCCCCCCCCCCCCCC
inactive: dose: 12.5 mg/kg/injection, schedule: Q04DX002 (ip), vehicle: saline 102 % of control | dose: 25.0 mg/kg/injection, schedule: Q04DX002 (ip), vehicle: saline 97 % of control

CC=NC(C)(C)C
inactive: [10] 91 % of control | [11] 94 % of control | [12] 95 % of control and 91 % of control

CC1(C)OC2C(CNCCO)OC(OCc3ccccc3)C2O1 (stereo not given)
inactive: [13] 102 % of control | [15] 94 % of control | [17] 88 % of control

CCCCCCCCOC(=O)CCC(N)C(=O)O (stereo not given)
inactive: [7] 107 % of control | [19] 93 % of control | [8] 102 % of control | [20] 97 % of control | [9] 98 % of control | dose: 400.0 mg/kg/injection, schedule: Q01DX009 (ip), vehicle: Klucel (hydroxypropylcellulose) (HPC) 97 % of control

C1CCN(CCC2CCCCN2)CC1 (stereo not given)
inactive: dose: 25.0 mg/kg/injection, schedule: Q04DX003 (ip), vehicle: saline 105 % of control | [13] 94 % of control | [15] 101 % of control and 92 % of control

Cc1cc(=O)[nH]c(N/N=C2/CCCCC2C)n1 (stereo not given)
inactive: dose: 50.0 mg/kg/injection, schedule: Q01DX009 (ip), vehicle: Klucel (hydroxypropylcellulose) (HPC) 100 % of control | [19] 95 % of control | dose: 100.0 mg/kg/injection, schedule: Q04DX003 (ip), vehicle: Klucel (hydroxypropylcellulose) (HPC) 100 % of control | [20] 100 % of control | dose: 200.0 mg/kg/injection, schedule: Q04DX003 (ip), vehicle: Klucel (hydroxypropylcellulose) (HPC) 97 % of control

CC[As](=O)(O)CCCc1ccccc1
inactive: dose: 12.5 mg/kg/injection, schedule: Q01DX001 (ip), vehicle: Klucel (hydroxypropylcellulose) (HPC) 106 % of control | dose: 25.0 mg/kg/injection, schedule: Q01DX001 (ip), vehicle: Klucel (hydroxypropylcellulose) (HPC) 109 % of control

c1ccc(P(=NC2CCCCCC2)(c2ccccc2)c2ccccc2)cc1
inactive: [21] 95 % of control | [22] 94 % of control

CNc1ncnc2c1ncn2C1CC(CO)C(O)C1O (stereo not given)
inactive: [18] 98 % of control

COC(=O)c1cc(C)[n+]([O-])cc1C(=O)OC
inactive: [15] 92 % of control | [17] 97 % of control | dose: 400.0 mg/kg/injection, schedule: Q04DX003 (ip), vehicle: saline 100 % of control

CCOC(=O)C(=CN1CCOCC1)C(=O)OCC
inactive: [4] 100 % of control | dose: 100.0 mg/kg/injection, schedule: Q04DX003 (ip), vehicle: saline with Tween-80 120 % of control | [5] 100 % of control | dose: 200.0 mg/kg/injection, schedule: Q04DX003 (ip), vehicle: saline with Tween-80 102 % of control | [6] 100 % of control | dose: 400.0 mg/kg/injection, schedule: Q04DX003 (ip), vehicle: saline with Tween-80 98 % of control

CCC(N)C(=O)O (stereo not given)
inactive: [14] 108 % of control | [16] 102 % of control | dose: 400.0 mg/kg/injection, schedule: Q01DX001 (ip), vehicle: saline 94 % of control

Fc1ccc(C(=S)Nc2ccccc2)cc1
inactive: [21] 104 % of control | [22] 98 % of control | dose: 400.0 mg/kg/injection, schedule: Q01DX001 (ip), vehicle: acetone 92 % of control

CCOC(=O)N(OC(C)=O)P(=O)(N1CC1)N1CC1
inactive: dose: 100.0 mg/kg/injection, schedule: Q04DX002 (ip), vehicle: saline 100 % of control | dose: 200.0 mg/kg/injection, schedule: Q04DX002 (ip), vehicle: saline 100 % of control | dose: 400.0 mg/kg/injection, schedule: Q04DX002 (ip), vehicle: saline 104 % of control

CSC(N)=Nc1ccc(C(=O)O)cc1
inactive: [4] 105 % of control | [5] 112 % of control | [6] 97 % of control

Source: PubChem BioAssay AID248 (DTP/NCI, 2004)
